Laboratory results taken from article PMC6979384, “Characterization of the plant homeodomain (PHD) reader family for their histone tail interactions” (Epigenetics & Chromatin, 2020).

Key:
Experiment in all cases: Histone peptide microarray
Type in all cases: binding, human
[1] = tested on: RAG2; details: total n = 4; for Array Heatmap signal, RAG2: sheet "Array Heatmap", GST-tagged reader, histone peptide array
Outline: (§1)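 GST-PHD reader, 0.5 μM, probed on 293-peptide histone array (single/combinatorial PTMs); optimized array protocol; signal = mean ± SD, n = 4.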

[2] = tested on: KDM5A (1); details: total n = 4; for Array Heatmap signal, KDM5A (1): sheet "Array Heatmap", GST-tagged reader, histone peptide array
Outline: as §1

[3] = tested on: SP140L; details: total n = 4; for Array Heatmap signal, SP140L: sheet "Array Heatmap", GST-tagged reader, histone peptide array
Outline: as §1

[4] = tested on: PHF8; details: total n = 4; for Array Heatmap signal, PHF8: sheet "Array Heatmap", GST-tagged reader, histone peptide array
Outline: as §1

[5] = tested on: KDM4C (TTP); details: total n = 4; for Array Heatmap signal, KDM4C (TTP): sheet "Array Heatmap", GST-tagged reader, histone peptide array
Outline: as §1

[6] = tested on: PHF2; details: total n = 4; for Array Heatmap signal, PHF2: sheet "Array Heatmap", GST-tagged reader, histone peptide array
Outline: as §1

[7] = tested on: CHD4 (PPCC); details: total n = 4; for Array Heatmap signal, CHD4 (PPCC): sheet "Array Heatmap", GST-tagged reader, histone peptide array
Outline: as §1

[8] = tested on: ING4; details: total n = 4; for Array Heatmap signal, ING4: sheet "Array Heatmap", GST-tagged reader, histone peptide array
Outline: as §1

[9] = tested on: KDM5B (3); details: total n = 4; for Array Heatmap signal, KDM5B (3): sheet "Array Heatmap", GST-tagged reader, histone peptide array
Outline: as §1

[10] = tested on: ING3; details: total n = 4; for Array Heatmap signal, ING3: sheet "Array Heatmap", GST-tagged reader, histone peptide array
Outline: as §1

[11] = tested on: AIRE (PP); details: total n = 4; for Array Heatmap signal, AIRE (PP): sheet "Array Heatmap", GST-tagged reader, histone peptide array
Outline: as §1

[12] = tested on: CHD5 (PCC); details: total n = 4; for Array Heatmap signal, CHD5 (PCC): sheet "Array Heatmap", GST-tagged reader, histone peptide array
Outline: as §1

[13] = tested on: PHRF1 (RP); details: total n = 4; for Array Heatmap signal, PHRF1 (RP): sheet "Array Heatmap", GST-tagged reader, histone peptide array
Outline: as §1

[14] = tested on: DPF2 (PPC2W2); details: total n = 4; for Array Heatmap signal, DPF2 (PPC2W2): sheet "Array Heatmap", GST-tagged reader, histone peptide array
Outline: as §1

[15] = tested on: ING2; details: total n = 4; for Array Heatmap signal, ING2: sheet "Array Heatmap", GST-tagged reader, histone peptide array
Outline: as §1

[16] = tested on: ING5; details: total n = 4; for Array Heatmap signal, ING5: sheet "Array Heatmap", GST-tagged reader, histone peptide array
Outline: as §1

[17] = tested on: ING1; details: total n = 4; for Array Heatmap signal, ING1: sheet "Array Heatmap", GST-tagged reader, histone peptide array
Outline: as §1

[18] = tested on: TAF3; details: total n = 4; for Array Heatmap signal, TAF3: sheet "Array Heatmap", GST-tagged reader, histone peptide array
Outline: as §1

[19] = tested on: MLL5; details: total n = 4; for Array Heatmap signal, MLL5: sheet "Array Heatmap", GST-tagged reader, histone peptide array
Outline: as §1

[20] = tested on: PHF21A; details: total n = 4; for Array Heatmap signal, PHF21A: sheet "Array Heatmap", GST-tagged reader, histone peptide array
Outline: as §1

[21] = tested on: BAZ2B; details: total n = 4; for Array Heatmap signal, BAZ2B: sheet "Array Heatmap", GST-tagged reader, histone peptide array
Outline: as §1

[22] = tested on: CHD5 (PPCC); details: total n = 4; for Array Heatmap signal, CHD5 (PPCC): sheet "Array Heatmap", GST-tagged reader, histone peptide array
Outline: as §1

[23] = tested on: KDM7A; details: total n = 4; for Array Heatmap signal, KDM7A: sheet "Array Heatmap", GST-tagged reader, histone peptide array
Outline: as §1

[24] = tested on: DIDO1; details: total n = 4; for Array Heatmap signal, DIDO1: sheet "Array Heatmap", GST-tagged reader, histone peptide array
Outline: as §1

[25] = tested on: KDM5A (3); details: total n = 4; for Array Heatmap signal, KDM5A (3): sheet "Array Heatmap", GST-tagged reader, histone peptide array
Outline: as §1

[26] = tested on: BPTF (PB); details: total n = 4; for Array Heatmap signal, BPTF (PB): sheet "Array Heatmap", GST-tagged reader, histone peptide array
Outline: as §1

[27] = tested on: PHF23; details: total n = 4; for Array Heatmap signal, PHF23: sheet "Array Heatmap", GST-tagged reader, histone peptide array
Outline: as §1

[28] = tested on: TRIM66 (PB); details: total n = 4; for Array Heatmap signal, TRIM66 (PB): sheet "Array Heatmap", GST-tagged reader, histone peptide array
Outline: as §1

[29] = tested on: KDM5B (1); details: total n = 4; for Array Heatmap signal, KDM5B (1): sheet "Array Heatmap", GST-tagged reader, histone peptide array
Outline: as §1

[30] = tested on: MORC3 (CW); details: total n = 4; for Array Heatmap signal, MORC3 (CW): sheet "Array Heatmap", GST-tagged reader, histone peptide array
Outline: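 Steps: express and purify GST-tagged PHD reader; incubate 0.5 μM protein on a peptide microarray (293 histone peptides, single or combined PTMs) following an optimized protocol; average signal across 4 replicates.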

[31] = tested on: PHF13; details: total n = 4; for Array Heatmap signal, PHF13: sheet "Array Heatmap", GST-tagged reader, histone peptide array
Outline: as §1

Substance: H3R8me2a + K9me3: H3 1-20
- Array Heatmap signal, RAG2 [1]: 0.2449
- Array Heatmap signal, KDM5A (1) [2]: 0.4583
- Array Heatmap signal, SP140L [3]: 0.3611
- Array Heatmap signal, PHF8 [4]: 0.3554
- Array Heatmap signal, KDM4C (TTP) [5]: 0.4618
- Array Heatmap signal, PHF2 [6]: 0.5753
- Array Heatmap signal, CHD4 (PPCC) [7]: 0.5686
- Array Heatmap signal, ING4 [8]: 0.4504
- Array Heatmap signal, KDM5B (3) [9]: 0.5093
- Array Heatmap signal, ING3 [10]: 0.4657
- Array Heatmap signal, AIRE (PP) [11]: 0.4401
- Array Heatmap signal, CHD5 (PCC) [12]: 0.7117
- Array Heatmap signal, PHRF1 (RP) [13]: 0.6376
- Array Heatmap signal, DPF2 (PPC2W2) [14]: 0.714
- Array Heatmap signal, ING2 [15]: 0.595
- Array Heatmap signal, ING5 [16]: 0.3474
- Array Heatmap signal, ING1 [17]: 0.57
- Array Heatmap signal, TAF3 [18]: 0.2595
- Array Heatmap signal, MLL5 [19]: 0.5407
- Array Heatmap signal, PHF21A [20]: 0.4463
- Array Heatmap signal, BAZ2B [21]: 0.4376
- Array Heatmap signal, CHD5 (PPCC) [22]: 0.5418
- Array Heatmap signal, KDM7A [23]: 0.3302
- Array Heatmap signal, DIDO1 [24]: 0.7155
- Array Heatmap signal, KDM5A (3) [25]: 0.5315
- Array Heatmap signal, BPTF (PB) [26]: 0.3424
- Array Heatmap signal, PHF23 [27]: 0.5164
- Array Heatmap signal, TRIM66 (PB) [28]: 0.5712
- Array Heatmap signal, KDM5B (1) [29]: 0.64
- Array Heatmap signal, MORC3 (CW) [30]: 0.4005
- Array Heatmap signal, PHF13 [31]: 0.5734

Substance: H3.3K18ac + K23ac + K27ac + S28p: H3.3 15-34
- Array Heatmap signal, RAG2 [1]: 0.2492
- Array Heatmap signal, KDM5A (1) [2]: 0.4461
- Array Heatmap signal, SP140L [3]: 0.326
- Array Heatmap signal, PHF8 [4]: 0.3574
- Array Heatmap signal, KDM4C (TTP) [5]: 0.4483
- Array Heatmap signal, PHF2 [6]: 0.5396
- Array Heatmap signal, CHD4 (PPCC) [7]: 0.5345
- Array Heatmap signal, ING4 [8]: 0.4374
- Array Heatmap signal, KDM5B (3) [9]: 0.4567
- Array Heatmap signal, ING3 [10]: 0.4727
- Array Heatmap signal, AIRE (PP) [11]: 0.4033
- Array Heatmap signal, CHD5 (PCC) [12]: 0.7419
- Array Heatmap signal, PHRF1 (RP) [13]: 0.4303
- Array Heatmap signal, DPF2 (PPC2W2) [14]: 0.6362
- Array Heatmap signal, ING2 [15]: 0.6018
- Array Heatmap signal, ING5 [16]: 0.3405
- Array Heatmap signal, ING1 [17]: 0.5496
- Array Heatmap signal, TAF3 [18]: 0.2571
- Array Heatmap signal, MLL5 [19]: 0.5576
- Array Heatmap signal, PHF21A [20]: 0.4374
- Array Heatmap signal, BAZ2B [21]: 0.4455
- Array Heatmap signal, CHD5 (PPCC) [22]: 0.5304
- Array Heatmap signal, KDM7A [23]: 0.3117
- Array Heatmap signal, DIDO1 [24]: 0.747
- Array Heatmap signal, KDM5A (3) [25]: 0.436
- Array Heatmap signal, BPTF (PB) [26]: 0.3427
- Array Heatmap signal, PHF23 [27]: 0.5591
- Array Heatmap signal, TRIM66 (PB) [28]: 0.5994
- Array Heatmap signal, KDM5B (1) [29]: 0.64
- Array Heatmap signal, MORC3 (CW) [30]: 0.3503
- Array Heatmap signal, PHF13 [31]: 0.5819

Substance: H3R2me2a: H3 1-20 [Peptide H3R2me2a]
- Array Heatmap signal (histone peptide microarray) ([1]; GST-tagged RAG2, sheet Array Heatmap, each array performed twice): 0.2465
- Array Heatmap signal (histone peptide microarray) ([2]; GST-tagged KDM5A (1), sheet Array Heatmap, each array performed twice): 0.4227
- Array Heatmap signal (histone peptide microarray) ([3]; GST-tagged SP140L, sheet Array Heatmap, each array performed twice): 0.3569
- Array Heatmap signal (histone peptide microarray) ([4]; GST-tagged PHF8, sheet Array Heatmap, each array performed twice): 0.3491
- Array Heatmap signal (histone peptide microarray) ([5]; GST-tagged KDM4C (TTP = Tandem Tudor domain + PHD), sheet Array Heatmap, each array performed twice): 0.4374
- Array Heatmap signal (histone peptide microarray) ([6]; GST-tagged PHF2, sheet Array Heatmap, each array performed twice): 0.5486
- Array Heatmap signal (histone peptide microarray) ([7]; GST-tagged CHD4 (PPCC = Dual PHD + Dual Chromodomain), sheet Array Heatmap, each array performed twice): 0.6459
- Array Heatmap signal (histone peptide microarray) ([8]; GST-tagged ING4, sheet Array Heatmap, each array performed twice): 0.442
- Array Heatmap signal (histone peptide microarray) ([9]; GST-tagged KDM5B (3), sheet Array Heatmap, each array performed twice): 0.4682
- Array Heatmap signal (histone peptide microarray) ([10]; GST-tagged ING3, sheet Array Heatmap, each array performed twice): 0.4743
- Array Heatmap signal (histone peptide microarray) ([11]; GST-tagged AIRE (PP), sheet Array Heatmap, each array performed twice): 0.3953
- Array Heatmap signal (histone peptide microarray) ([12]; GST-tagged CHD5 (PCC = PHD + Dual Chromodomain), sheet Array Heatmap, each array performed twice): 0.7924
- Array Heatmap signal (histone peptide microarray) ([13]; GST-tagged PHRF1 (RP), sheet Array Heatmap, each array performed twice): 0.516
- Array Heatmap signal (histone peptide microarray) ([14]; GST-tagged DPF2 (PPC2W2 = Dual PHD + C2W2-type Zn-finger), sheet Array Heatmap, each array performed twice): 0.6507
- Array Heatmap signal (histone peptide microarray) ([15]; GST-tagged ING2, sheet Array Heatmap, each array performed twice): 0.6004
- Array Heatmap signal (histone peptide microarray) ([16]; GST-tagged ING5, sheet Array Heatmap, each array performed twice): 0.3271
- Array Heatmap signal (histone peptide microarray) ([17]; GST-tagged ING1, sheet Array Heatmap, each array performed twice): 0.5498
- Array Heatmap signal (histone peptide microarray) ([18]; GST-tagged TAF3, sheet Array Heatmap, each array performed twice): 0.2736
- Array Heatmap signal (histone peptide microarray) ([19]; GST-tagged MLL5, sheet Array Heatmap, each array performed twice): 0.5223
- Array Heatmap signal (histone peptide microarray) ([20]; GST-tagged PHF21A, sheet Array Heatmap, each array performed twice): 0.4684
- Array Heatmap signal (histone peptide microarray) ([21]; GST-tagged BAZ2B, sheet Array Heatmap, each array performed twice): 0.4186
- Array Heatmap signal (histone peptide microarray) ([22]; GST-tagged CHD5 (PPCC = Dual PHD + Dual Chromodomain), sheet Array Heatmap, each array performed twice): 0.5177
- Array Heatmap signal (histone peptide microarray) ([23]; GST-tagged KDM7A, sheet Array Heatmap, each array performed twice): 0.3073
- Array Heatmap signal (histone peptide microarray) ([24]; GST-tagged DIDO1, sheet Array Heatmap, each array performed twice): 0.6992
- Array Heatmap signal (histone peptide microarray) ([25]; GST-tagged KDM5A (3), sheet Array Heatmap, each array performed twice): 0.4981
- Array Heatmap signal (histone peptide microarray) ([26]; GST-tagged BPTF (PB = PHD + Bromodomain), sheet Array Heatmap, each array performed twice): 0.3326
- Array Heatmap signal (histone peptide microarray) ([27]; GST-tagged PHF23, sheet Array Heatmap, each array performed twice): 0.5039
- Array Heatmap signal (histone peptide microarray) ([28]; GST-tagged TRIM66 (PB = PHD + Bromodomain), sheet Array Heatmap, each array performed twice): 0.568
- Array Heatmap signal (histone peptide microarray) ([29]; GST-tagged KDM5B (1), sheet Array Heatmap, each array performed twice): 0.5237
- Array Heatmap signal (histone peptide microarray) ([30]; GST-tagged MORC3 (CW = CW-type Zn-finger), sheet Array Heatmap, each array performed twice): 0.4345
- Array Heatmap signal (histone peptide microarray) ([31]; GST-tagged PHF13, sheet Array Heatmap, each array performed twice): 0.5929
